Source: US4737504A, “5-fluoro-and 8-fluoro-trimetoquinol compounds and the processes for their preparation” (priority 1986, dated 1988)
Read-outs that look alike come from different tables or passages of the source.

Assays:
[1] = target: T1, U46619-induced contractions of rat thoracic aorta (Rattus norvegicus, UniProt P34978); assay: antagonism of U46619-induced contractions of rat thoracic aorta; assay type: cell-based, rat (male Sprague-Dawley); conditions: for Kb: against U46619, read-out: pKB ± SEM (converted); for ΔpD2 of U46619: pD2 (control) - pD2 (treatment); for inhibitory potency on U46619-induced contractions greater than trimetoquinol: relative to trimetoquinol 1
T1 construct: A 2-3 cm segment of thoracic aorta was excised; tissue Harlan Industries, Inc., Cumberland, IN (animals); host or cells: rat thoracic aorta, spirally cut strips
T1 sequence (P34978 1-341): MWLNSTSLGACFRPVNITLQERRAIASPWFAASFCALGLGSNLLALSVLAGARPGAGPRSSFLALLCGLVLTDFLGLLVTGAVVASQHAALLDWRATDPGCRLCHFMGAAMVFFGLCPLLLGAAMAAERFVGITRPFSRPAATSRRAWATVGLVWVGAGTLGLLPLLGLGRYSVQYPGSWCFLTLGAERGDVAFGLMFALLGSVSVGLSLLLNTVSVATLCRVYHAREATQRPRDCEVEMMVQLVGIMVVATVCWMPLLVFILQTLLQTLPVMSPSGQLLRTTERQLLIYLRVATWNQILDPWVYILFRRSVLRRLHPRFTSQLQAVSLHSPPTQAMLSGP
Protocol: The vasoconstrictive activity of U46619 (a stable thromboxane A2 agonist) on thoracic aorta tissue was determined as follows: Male Sprague-Dawley rats (Harlan Industries, Inc., Cumberland, IN) weighing between 250 and 350 gm were stunned and killed by cervical dislocation. A 2-3 cm segment of thoracic aorta was excised, cleaned of any adhering fat and connecting tissue, spirally cut into 2 matched strips, Constantine, supra. (2.0×0.3 cm). Strips were mounted in 10 ml tissue baths filled with the physiological salt solution in which 3×10^-6 M indomethaecin was present. A tension of 1 gm was applied to the strips. Responses of the tissues to drugs were monitored via Grass FT-03 isometric force transducers connected to a Grass Model 7C polygraph (Grass Instruments Co., Quincy, MA).
Some experiments were done in the absence of indomethacin. Concentration-dependent responses to U46619 were constructed in each preparation as described by Van Rossum, supra.
Effective concentration-50 (EC50) values of the agonists were determined graphically from individual plots of percent response versus log concentration. The potency of each agonist was expressed as a pD2 value where pD2 is equal to the negative logarithm of the experimentally determined EC50 value.
Antagonists were quantitated by calculating their pKB or pA2 values according to the methods of Furchgott, Ann. N.Y. Acad. Sci., 139: 553-570 (1967) and Arunlakshana et al., Br. J. Pharmacol., 14: 48-58 (1959). The pKB value is equivalent to the -log of [I]/(CR-1), where pKB is the negative logarithm of the apparent dissociation constant of the antagonist (KB), [I] is the concentration of the antagonist, and CR is the concentration ratio of the agonist EC50 in the presence of antagonist to the agonist EC50 in the absence of antagonist. To determine significant differences between pD2, pKB or pA2 values, a 5% level of significance was used. Arunlakshana plots were analyzed by computer according to the method of Tallarida et al., Manual of Pharmacological Calculations With Computer Programs, 29-31, (1981).

[2] = test system: human platelets (U46619-induced serotonin secretion); assay: inhibition of U46619-induced serotonin secretion in presence of aspirin, human platelet-rich plasma; assay type: cell-based; conditions: U46619 0.5-1.5 μM, aspirin 1 mM
Protocol: The antiaggregatory and antisecretory activity on human platelets was determined by evaluating the in vitro aggregation and [^14 C]serotonin secretion in human platelet preparations. Blood was taken by venipuncture from normal human volunteers who were reported to be free of medication for at least 10 days before blood drawing. Venous blood samples were mixed with acid-citrate dextrose solution (9:1) and centrifuged at 120×g for 15 minutes at room temperature to obtain platelet-rich plasma, PRP, (Huzoor-Akbar et al., Biochem. Pharmacol., 30: 2013-2020, 1981). The PRP was transferred to polypropylene tubes and stored under an atmosphere of 8% CO2. The remaining blood was centrifuged at 1000×g for 10 minutes to obtain platelet-poor plasma. […] Platelet counts varied between 280,000 to 320,000 per cmm or were adjusted to 300,000 per cmm for the aggregation and secretion experiments. All studies were conducted within 2 hours after PRP recovery.
For aggregation studies, 0.5 ml of PRP was incubated with drug or vehicle (1-5 μl) for 1 minute at 37° C. before the initiation of aggregation with inducers. […] In all experiments, the minimum concentration of inducer (adenosine diphosphate ADP; epinephrine, E; 15S-hydroxy-11α,9α-epoxymethanoprosta-5Z,13E-dienoic acid, U46619; collagen; and arachidonic acid, AA) which caused maximal irreversible aggregation within each PRP preparation was used. Aggregation was monitored for 4 to 6 minutes after the addition of an inducer and data were presented as a percentage inhibition of either slope or maximal light transmittance changes in the presence of varying drug concentrations.
Secretion data were calculated as the net increase of serotonin released into the supernatant by each inducer and expressed as a percentage of the total radioactivity in platelets Mayo et al., Biochem. Pharmacol., 30: 2237-2241, 1981. The effect of compounds on serotonin release was expressed as the percentage of inhibition of the maximum release by each inducer and plotted against the log molar concentrations of each agent.

[3] = read-out: IC50 serotonin secretion
[4] = read-out: pIC50 serotonin secretion (converted)

Row | Compound | Kb ([1]; analog 1 × 10^-4 M) [µM] | Kb ([1]; analog 3 × 10^-5 M) [µM] | Kb ([1]; analog 3 × 10^-6 M) [µM] | pD2 of U46619 in presence of analog ([1]; analog 1 × 10^-4 M) | pD2 of U46619 in presence of analog ([1]; analog 3 × 10^-5 M) | pD2 of U46619 in presence of analog ([1]; analog 3 × 10^-6 M) | ΔpD2 of U46619 ([1]; analog 1 × 10^-4 M) | ΔpD2 of U46619 ([1]; analog 3 × 10^-5 M) | ΔpD2 of U46619 ([1]; analog 3 × 10^-6 M) | inhibitory potency on U46619-induced contractions greater than trimetoquinol [1] | IC50 [2, 3] [µM] | IC50 [2, 4] [µM] | Kb ([1]; analog 1 × 10^-5 M) [µM] | pD2 of U46619 in presence of analog ([1]; analog 1 × 10^-5 M) | ΔpD2 of U46619 ([1]; analog 1 × 10^-5 M)
1 | COc1cc(CC2NCCc3c2cc(O)c(O)c3F)cc(OC)c1OC (stereo not drawn) [Compound 5-F-TMQ, 5-fluoro-trimetoquinol] | 1.74 | 3.16 | 1.51 | 6.40 ± 0.16 | 7.14 ± 0.08 | 7.69 ± 0.08 | 1.77 ± 0.16 | 1.02 ± 0.08 | 0.48 ± 0.07 | about 2 fold | 6.9 | 6.92 |  |  | 
2 | COc1cc(CC2NCCc3cc(O)c(O)c(F)c32)cc(OC)c1OC (stereo not drawn) [Compound 8-F-TMQ, 8-fluoro-trimetoquinol] |  | 0.372 | 0.38 |  | 6.25 ± 0.14 | 7.20 ± 0.12 |  | 1.92 ± 0.14 | 0.96 ± 0.19 | ~10 fold | 4.4 | 4.37 | 0.251 | 6.81 ± 0.12 | 1.36 ± 0.12
